In ChEMBL document CHEMBL1629515, “Synthesis and biological evaluation of oleanolic acid derivatives as inhibitors of protein tyrosine phosphatase 1B” (J Nat Prod, 2010) one finds IC50 data, which are given here for four molecules.

The assay has as its target T1, Tyrosine-protein phosphatase non-receptor type 1 (Homo sapiens, UniProt P18031).
T1 sequence (P18031 whole entry): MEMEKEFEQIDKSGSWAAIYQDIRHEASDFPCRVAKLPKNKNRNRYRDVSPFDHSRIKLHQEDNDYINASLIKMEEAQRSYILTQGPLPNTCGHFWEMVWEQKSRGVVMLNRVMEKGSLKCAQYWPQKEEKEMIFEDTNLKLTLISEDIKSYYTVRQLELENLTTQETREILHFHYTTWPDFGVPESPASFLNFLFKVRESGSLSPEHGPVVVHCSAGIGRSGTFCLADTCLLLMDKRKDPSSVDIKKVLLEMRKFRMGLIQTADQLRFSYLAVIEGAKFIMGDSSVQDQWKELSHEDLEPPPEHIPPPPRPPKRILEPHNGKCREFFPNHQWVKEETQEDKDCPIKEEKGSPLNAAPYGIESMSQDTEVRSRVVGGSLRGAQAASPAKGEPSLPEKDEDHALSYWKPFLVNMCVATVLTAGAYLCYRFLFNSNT
The assay is described as follows: Inhibition of recombinant PTP1B expressed in Escherichia coli BL21 after 30 mins by spectrophotometry.
On to `CC1(C)CC[C@]2(COC(=O)c3ccccc3C(=O)O)CC[C@]3(C)C(=CC[C@@H]4[C@@]5(C)CCC(=O)C(C)(C)[C@@H]5CC[C@]43C)[C@@H]2C1`, for which the half-inhibitory concentration (IC50) (usually the midpoint of a concentration-inhibition curve) was 3.12 µM.

`CC1(C)CC[C@]2(COC(=O)CCC(=O)O)CC[C@]3(C)C(=CC[C@@H]4[C@@]5(C)CCC(=O)C(C)(C)[C@@H]5CC[C@]43C)[C@@H]2C1`: the IC50 was 4.61 µM.

With `CC1(C)CC[C@]2(COC(=O)CCCC(=O)O)CC[C@]3(C)C(=CC[C@@H]4[C@@]5(C)CCC(=O)C(C)(C)[C@@H]5CC[C@]43C)[C@@H]2C1`, the IC50 turned out to be 6.39 µM.

Turning to `CC1(C)CC[C@]2(COC(=O)CC(=O)O)CC[C@]3(C)C(=CC[C@@H]4[C@@]5(C)CCC(=O)C(C)(C)[C@@H]5CC[C@]43C)[C@@H]2C1`, the half-maximal inhibitory concentration (IC50) amounted to 4.11 µM.
